The results in this text go back to patent US7427640B1, “Oil materials comprising dimerdiol ester and cosmetics comprising the ester” (Nippon Fine Chemical Co., Ltd., priority 1999, dated 2008).

Read-outs that look alike come from different tables or passages of the source.

Assay type in all cases: physicochemical
Series [1] is described as follows: Refractive index (refractometer Model 3). The method, then: Refractive index of the dimerdiol esters obtained in Examples 1, 3, 5, 7, 9 and 11 were measured. Each of the refractive index was measured at 30° C. using a refractometer Model 3 (Manufactured by ATAGO BUSSAN Ltd.).
Refractive index of the esters obtained in Examples 28-35 were measured. Each of the refractive index was measured at 20° C. using a refractometer Model 3 (Manufactured by ATAGO BUSSAN Ltd.).

Series [2] in a line: Dispersability for pigment, titanium dioxide. The source says: (§1) Titanium dioxide, red iron oxide and organic pigment used in the measurement are PIGMOLITE CR-50, PIGMOLITE BENGARA No. 211 and Red 202, respectively, manufactured by DAITO KASEI KOGYO Co. Ltd. The dispersability is expressed by amount (g) of the tested sample per 100 g of the pigment at wet point (W.P) and flow point (F.P).

Series [3] is described as follows: Dispersability for pigment, red iron oxide. The note with it: amount of tested sample per 100 g of the pigment at wet point.
Description: as §1

A short description of series [4]: Dispersability for pigment, organic pigment Red No. 202.
Description: as §1

Series [5] in a line: Gloss of wax-solidified ester (handy glossmeter). The note with it: coated on paraffin paper, intensity of reflected light at 60°. The method, then: Each of the solidified product was coated on paraffin paper and gloss was measured with a handy glossmeter manufactured by HORIBA Ltd. Gloss was expressed by intensity of light reflected on the coated surface of paraffin paper at incident angle/reflection angle of 60°.

Series [6] can be described thus: Alkali hydrolysis resistance. The note with it: 0.8 g of sample heated at 80° C. for 3 hours in 25 mL of 0.05 N KOH-ethanol solution. The procedure: Alkali hydrolysis resistance of the dimerdiol esters obtained in Examples 1, 3, 5, 7, 9 and 11 were measured. The alkali hydrolysis resistance was expressed by the decomposition ratio of 0.8 g of sample which was heated at 80° C. for 3 hours in 25 mL of 0.05 N of KOH-ethanol solution.

A short description of series [7]: Oxidation stability, Rancimat 676 automatic oils and fats stability test. The source says: Index of the oxidation stability was expressed by the time until conductance of the trapped water started rising. […] Index of the oxidation stability was expressed by the time until conductance of the trapped water started rising.
Where [8] appears, read: amount of tested sample per 100 g of the pigment at flow point.
The mark [9] stands for this setting: amount of tested sample per 100 g of the pigment at wet point.
The mark [10] stands for this setting: 120° C., 3 g of sample, air flow rate 20 L/Hr, time until conductance of the trapped water started rising, esters of Examples 1-12.

The molecule `CC(C)CCCCCCCCCCCCCCCOC(=O)CC(O)C(=O)OCCCCCCCCCCCCCCCC(C)C` (centres unmarked) [di-iostearyl malate, di-isostearyl malate] returned a Refractive index in series [1] (20° C.) of 1.4611. Moreover, the “Titanium dioxide F.P” value in series [2] (setting [8]) was determined as 55 g. For the same molecule, in series [2] (setting [9]), the “Titanium dioxide W.P” value worked out at 26 g. In addition, in series [3], the “Red iron oxide W.P” value is 63 g. The “Red 202 F.P” value in series [4] (setting [8]) is listed as 200 g. In series [4] (setting [9]), the “Red 202 W.P” value was determined as 106 g. Further, the “Gloss, Candelira wax” value in series [5] (solidified by compounding 20% of candelira wax) was 41. Also, the “Gloss, Ceresin” value in series [5] (solidified by compounding 20% of ceresine) is listed as 35.

Consider `CC(C)CCCCC(=O)OCC(O)CO` (centres unmarked) [glyceryl isooctanoate, reference compound], for which the Decomposition ratio in series [6] was found to be 8%.

In series [1] (30° C.), dimerdiol [PESPOL HP-1000] came in with a Refractive index of 1.4778.

Take erucic acid dimerdiol ester [Example 3]: the “Index of oxidation stability” value in series [7] (setting [10]) is 3 h. Further, the Refractive index in series [1] (30° C.) worked out at 1.4719. In addition, the Decomposition ratio in series [6] amounted to 79%.

Consider “hydrogenated rosin dimerdiol ester [Example 1]”, for which the “Index of oxidation stability” value in series [7] (setting [10]) was 6 h. In series [1] (30° C.), this molecule gave a Refractive index of 1.5075. For the same molecule, in series [6], the Decomposition ratio stood at 3%.

With “isostearic acid dimerdiol ester [Example 11]”, the “Index of oxidation stability” value in series [7] (setting [10]) was determined as 8 h. Moreover, the Refractive index in series [1] (30° C.) amounted to 1.4709. The Decomposition ratio in series [6] is recorded as 70%.

Take “long chain branched fatty acid dimerdiol ester [Example 7]”: the “Index of oxidation stability” value in series [7] stood at 4 h.

“mono-isostearic acid dimerdiol ester [Example 5]”: the “Index of oxidation stability” value in series [7] (setting [10]) worked out at 8 h. Besides, the Refractive index in series [1] (30° C.) is 1.4659. For the same molecule, the Decomposition ratio in series [6] is 71%.
